In patent US10052330B2, “Substituted pyrido[3,4-b]pyrazines as Syk inhibitors” (HUTCHISON MEDIPHARMA LIMITED, priority 2011, dated 2018):

Tests used:
Syk kinase = Syk kinase (Homo sapiens, UniProt P43405); experiment: Syk kinase enzymatic assay (Kit-Tyr 2 Peptide); assay type: biochemical; conditions: 8 concentrations, 1 μM down to 0.0003 μM; upper bound of each range is 'less than'; read-out: IC50: Enzymatic Activity (Syk kinase)
RBL-2H3 cells = experiment: IgE-induced Beta-hexosaminidase secretion in RBL-2H3 cells; assay type: cell-based; conditions: Rattus norvegicus, RBL-2H3, RBL-2H3 cells sensitized with SPE-7, stimulated with DNP-BSA; upper bound of each range is 'less than'; read-out: IC50, IgE-induced Beta-hexosaminidase secretion

| SMILES | IC50 (Syk kinase) [nM] | IC50 (RBL-2H3 cells) [nM] |
| --- | --- | --- |
| Clc1cccc(-c2cc3nccnc3c(NCC3CCCNC3)n2)c1 (centres unmarked) [Compound 24] | 100 to 1000 | 100 to 1000 |
| c1cnc2c(NCC3CCCNC3)nc(-c3cn[nH]c3)cc2n1 (centres unmarked) [Compound 25] | 100 to 1000 | 100 to 1000 |
| COc1ccc(-c2cc3nccnc3c(NCC3CCCNC3)n2)cc1OC (centres unmarked) [Compound 26] | 1 to 100 | 100 to 1000 |
| NC1CCN(c2nc(-c3ccc(N4CCOCC4)cc3)cc3nccnc23)C1 (centres unmarked) [Compound 28] | 100 to 1000 | 100 to 1000 |
| COc1ccc(-c2cc3nccnc3c(NC[C@H]3CCCNC3)n2)cc1OC [Compound 33] | 1 to 100 | 100 to 1000 |
| c1cnc2c(NCC3CCNCC3)nc(-c3ccc(N4CCOCC4)cc3)cc2n1 [Compound 37] | 100 to 1000 | 100 to 1000 |
| c1cnc2c(N[C@@H]3CCNC3)nc(-c3ccc(N4CCOCC4)cc3)cc2n1 [Compound 39] | 100 to 1000 | 100 to 1000 |
| Cc1ccc(-c2cc3nccnc3c(NC[C@H]3CCCNC3)n2)cc1 [Compound 40] | 1 to 100 | 100 to 1000 |
| Cc1ccc(-c2cc3nccnc3c(NC[C@H]3CCCNC3)n2)cc1F [Compound 41] | 1 to 100 | 100 to 1000 |
| CC(C)COc1ccc(-c2cc3nccnc3c(NCC3CCCNC3)n2)cc1 (centres unmarked) [Compound 42] | 1 to 100 | 100 to 1000 |
| CCc1ccc(-c2cc3nccnc3c(NCC3CCCNC3)n2)cc1 (centres unmarked) [Compound 45] | 100 to 1000 | 100 to 1000 |
| CC(C)c1ccc(-c2cc3nccnc3c(NCC3CCCNC3)n2)cc1 (centres unmarked) [Compound 46] | 1 to 100 | 100 to 1000 |
| CC(C)(C)c1ccc(-c2cc3nccnc3c(NCC3CCCNC3)n2)cc1 (centres unmarked) [Compound 47] | 1 to 100 | 100 to 1000 |
| CC(C)Oc1ccc(-c2cc3nccnc3c(NCC3CCCNC3)n2)cc1F (centres unmarked) [Compound 52] | 1 to 100 | 100 to 1000 |
| FC(F)(F)Oc1ccc(-c2cc3nccnc3c(NCC3CCCNC3)n2)cc1 (centres unmarked) [Compound 54] | 1 to 100 | 100 to 1000 |
| Clc1ccc(-c2cc3nccnc3c(NCC3CCCNC3)n2)cc1 (centres unmarked) [Compound 55] | 1 to 100 | 100 to 1000 |
| CNc1ccc(-c2cc3nccnc3c(NCC3CCCNC3)n2)cn1 (centres unmarked) [Compound 60] | 1 to 100 | 100 to 1000 |

| SMILES | IC50 (Syk kinase) [nM] | IC50 (RBL-2H3 cells) [nM] |
| --- | --- | --- |
| FC(F)(F)c1ccc(-c2cc3nccnc3c(NCC3CCCNC3)n2)cc1 (centres unmarked) [Compound 63] | 1 to 100 | 100 to 1000 |
| Oc1ccc(-c2cc3nccnc3c(NC[C@H]3CCCNC3)n2)cc1F [Compound 67] | 1 to 100 | 100 to 1000 |
| COc1ccc(-c2cc3nccnc3c(NC[C@H]3CCCNC3)n2)c(F)c1 [Compound 68] | 100 to 1000 | 100 to 1000 |
| Cc1ccc(-c2cc3nccnc3c(NC[C@H]3CCCNC3)n2)cn1 [Compound 69] | 100 to 1000 | 100 to 1000 |
| CCN(CC)c1ccc(-c2cc3nccnc3c(NCC3CCCNC3)n2)cc1 (centres unmarked) [Compound 73] | 1 to 100 | 100 to 1000 |
| Nc1ccc(-c2cc3nccnc3c(NCC3CCCNC3)n2)cc1 (centres unmarked) [Compound 74] | 1 to 100 | 100 to 1000 |
| Nc1ccc(-c2cc3nccnc3c(NC[C@@H]3CCCNC3)n2)cc1Cl [Compound 75] | 100 to 1000 | 100 to 1000 |
| Cc1ccc(-c2cc3nccnc3c(NC[C@@H]3CCCNC3)n2)cc1Cl [Compound 76] | 100 to 1000 | 100 to 1000 |
| COCCOc1ccc(-c2cc3nccnc3c(NCC3CCCNC3)n2)cc1 (centres unmarked) [Compound 78] | 1 to 100 | 100 to 1000 |
| CC(C)(C)c1ccc(-c2cc3nccnc3c(NC[C@H]3CCCNC3)n2)cc1 [Compound 79] | 1 to 100 | 100 to 1000 |
| Cc1ccc(-c2cc3nccnc3c(NC[C@H]3CCCNC3)n2)cc1Cl [Compound 80] | 1 to 100 | 100 to 1000 |
| CC(C)(C)c1ccc(-c2cc3nccnc3c(NC[C@@H]3CCCNC3)n2)cc1 [Compound 83] | 1 to 100 | 100 to 1000 |
| CNc1ccc(-c2cc3nccnc3c(NC[C@@H]3CCCNC3)n2)cc1 [Compound 84] | 100 to 1000 | 100 to 1000 |
| Clc1ccc(-c2cc3nccnc3c(NC[C@H]3CCCNC3)n2)cc1 [Compound 85] | 1 to 100 | 100 to 1000 |
| CC(C)Oc1ccc(-c2cc3nccnc3c(NC[C@H]3CCCNC3)n2)cc1F [Compound 86] | 1 to 100 | 100 to 1000 |
| c1cnc2c(NC[C@H]3CCCNC3)nc(-c3ccc(N4CCOCC4)nc3)cc2n1 [Compound 87] | 1 to 100 | 100 to 1000 |
| CC(C)Oc1ccc(-c2cc3nccnc3c(NC[C@@H]3CCCNC3)n2)cc1F [Compound 88] | 100 to 1000 | 100 to 1000 |
